Measured values taken from patent US9708314B2, “Heterocyclic amide compound” (NISSAN CHEMICAL INDUSTRIES, LTD., priority 2013, dated 2017).

What was measured:
Assay type in all cases: in vivo
[1] = system: Echinochloa oryzacola Vasing.; experiment: Test Example 1: herbicidal activity, application before weed generation in submerged conditions; details: Application herbicide amount 320 g/ha; Seventeenth Table
Method in brief: (§1)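 Pre-emergence application to water surface of submerged pots (4 cm depth, alluvial soil) on sowing day, with 2.5-leaf rice transplanted; emulsion diluted to g/ha rates. Grown in greenhouse at 25–30 °C; 0–5 herbicidal/crop-effect score after three weeks.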

Monochoria vaginalis [2] = experiment: as above; details: Application herbicide amount 320 g/ha; Seventeenth Table
Method in brief: as §1

Scirpus juncoides [3] = experiment: as above; details: Application herbicide amount 320 g/ha; Seventeenth Table
Method in brief: as §1

[4] = system: Echinochloa oryzacola Vasing.; experiment: Test Example 2: herbicidal activity, application during weed generation in submerged conditions; details: Eighteenth Table; application herbicide amount 320 g/ha
Method in brief: (§2)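 Mixed sowings in flooded alluvial soil (4 cm water), greenhouse 25-30 °C; emulsifiable concentrate diluted in water applied to the water surface at the 1-2 leaf stage, rate in g/ha. Effect scored three weeks later on a 0-5 scale (5 = ≥90% herbicidal ratio, 0 = ≤5%).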

Monochoria vaginalis [5] = experiment: as above; details: Eighteenth Table; application herbicide amount 320 g/ha
Method in brief: as §2

Scirpus juncoides [6] = experiment: as above; details: Eighteenth Table; application herbicide amount 320 g/ha
Method in brief: as §2

[7] = system: directly sowed Oryza sativa; experiment: Test Example 3: effect on crop by application to foliage (Wagner pot, water depth 0.1-0.5 cm); details: Nineteenth Table; application to foliage; application herbicide amount 320 g/ha
Method in brief: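 Alluvial soil in 1/10000 are Wagner pots, sown and grown 14 days in a 25–30 °C greenhouse. An emulsifiable concentrate diluted in water to the set dose (g/ha) was sprayed on stems and leaves. Effect scored three weeks later on a 0–5 scale: 5 = ≥90% herbicidal ratio, 0 = ≤5%.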

| Structure (SMILES) | A: Echinochloa oryzicola Vasing. (herbicidal effect grade) [1] | C: Monochoria vaginalis (herbicidal effect grade) (Monochoria vaginalis [2]) | B: Scirpus juncoides (herbicidal effect grade) (Scirpus juncoides [3]) | A (Echinochloa oryzicola Vasing.) herbicidal ratio grade [4] | C (Monochoria vaginalis) herbicidal ratio grade (Monochoria vaginalis [5]) | B (Scirpus juncoides) herbicidal ratio grade (Scirpus juncoides [6]) | b (effect on crop grade) [7] |
| --- | --- | --- | --- | --- | --- | --- | --- |
| Cc1nnc(NC(=O)c2ccc(C(F)(F)F)n3c(SCC(F)(F)F)nnc23)o1 [1-124] | 3 (Herbicidal ratio of 40% or more and less than 70%) | 1 (Herbicidal ratio of 5% or more and less than 20%) | 3 (Herbicidal ratio of 40% or more and less than 70%) | 3 (Herbicidal ratio of 40% or more and less than 70%) | 1 (Herbicidal ratio of 5% or more and less than 20%) | 3 (Herbicidal ratio of 40% or more and less than 70%) | 0 (Herbicidal ratio of 5% or less (almost no effect)) |
| CC(=O)CSc1nnc2c(C(=O)Nc3nnc(C)o3)ccc(C(F)(F)F)n12 [1-125] | 0 (Herbicidal ratio of 5% or less (almost no effect)) | 1 (Herbicidal ratio of 5% or more and less than 20%) | 3 (Herbicidal ratio of 40% or more and less than 70%) | 0 (Herbicidal ratio of 5% or less (almost no effect)) | 1 (Herbicidal ratio of 5% or more and less than 20%) | 2 (Herbicidal ratio of 20% or more and less than 40%) | 1 (Herbicidal ratio of 5% or more and less than 20%) |
| Cc1nnc(NC(=O)c2ccc(C(F)(F)F)n3c(SCC4OCCO4)nnc23)o1 [1-126] | 3 (Herbicidal ratio of 40% or more and less than 70%) | 2 (Herbicidal ratio of 20% or more and less than 40%) | 4 (Herbicidal ratio of 70% or more and less than 90%) | 1 (Herbicidal ratio of 5% or more and less than 20%) | 3 (Herbicidal ratio of 40% or more and less than 70%) | 3 (Herbicidal ratio of 40% or more and less than 70%) | 0 (Herbicidal ratio of 5% or less (almost no effect)) |
| COCCN(C)c1nnc2c(C(=O)Nc3nnc(C)o3)ccc(C(F)(F)F)n12 [1-129] | 5 (Herbicidal ratio of 90% or more (almost completely withered)) | 3 (Herbicidal ratio of 40% or more and less than 70%) | 4 (Herbicidal ratio of 70% or more and less than 90%) | 3 (Herbicidal ratio of 40% or more and less than 70%) | 3 (Herbicidal ratio of 40% or more and less than 70%) | 4 (Herbicidal ratio of 70% or more and less than 90%) | 3 (Herbicidal ratio of 40% or more and less than 70%) |
| Cc1nnc(NC(=O)c2ccc(C(F)(F)F)n3c(NCC(F)(F)F)nnc23)o1 [1-131] | 2 (Herbicidal ratio of 20% or more and less than 40%) | 0 (Herbicidal ratio of 5% or less (almost no effect)) | 1 (Herbicidal ratio of 5% or more and less than 20%) | 0 (Herbicidal ratio of 5% or less (almost no effect)) | 0 (Herbicidal ratio of 5% or less (almost no effect)) | 1 (Herbicidal ratio of 5% or more and less than 20%) | 2 (Herbicidal ratio of 20% or more and less than 40%) |
| Cc1nnc(NC(=O)c2ccc(C(F)(F)F)n3c(N(C)C(C)C)nnc23)o1 [1-132] | 5 (Herbicidal ratio of 90% or more (almost completely withered)) | 4 (Herbicidal ratio of 70% or more and less than 90%) | 4 (Herbicidal ratio of 70% or more and less than 90%) | 4 (Herbicidal ratio of 70% or more and less than 90%) | 4 (Herbicidal ratio of 70% or more and less than 90%) | 4 (Herbicidal ratio of 70% or more and less than 90%) | 3 (Herbicidal ratio of 40% or more and less than 70%) |
| Cc1nnc(NC(=O)c2ccc(C(F)(F)F)n3c(N(C)C4CCCCC4)nnc23)o1 [1-133] | 5 (Herbicidal ratio of 90% or more (almost completely withered)) | 4 (Herbicidal ratio of 70% or more and less than 90%) | 3 (Herbicidal ratio of 40% or more and less than 70%) | 2 (Herbicidal ratio of 20% or more and less than 40%) | 3 (Herbicidal ratio of 40% or more and less than 70%) | 2 (Herbicidal ratio of 20% or more and less than 40%) | 0 (Herbicidal ratio of 5% or less (almost no effect)) |
| CCN(C)c1nnc2c(C(=O)Nc3nnc(C)o3)ccc(C(F)(F)F)n12 [1-134] | 3 (Herbicidal ratio of 40% or more and less than 70%) | 2 (Herbicidal ratio of 20% or more and less than 40%) | 3 (Herbicidal ratio of 40% or more and less than 70%) | 1 (Herbicidal ratio of 5% or more and less than 20%) | 3 (Herbicidal ratio of 40% or more and less than 70%) | 3 (Herbicidal ratio of 40% or more and less than 70%) | 2 (Herbicidal ratio of 20% or more and less than 40%) |
| CCN(CC)c1nnc2c(C(=O)Nc3nnc(C)o3)ccc(C(F)(F)F)n12 [1-135] | 3 (Herbicidal ratio of 40% or more and less than 70%) | 4 (Herbicidal ratio of 70% or more and less than 90%) | 4 (Herbicidal ratio of 70% or more and less than 90%) | 2 (Herbicidal ratio of 20% or more and less than 40%) | 3 (Herbicidal ratio of 40% or more and less than 70%) | 2 (Herbicidal ratio of 20% or more and less than 40%) | 1 (Herbicidal ratio of 5% or more and less than 20%) |
| Cc1nnc(NC(=O)c2ccc(C(F)(F)F)n3c(N4CCCC4)nnc23)o1 [1-136] | 5 (Herbicidal ratio of 90% or more (almost completely withered)) | 3 (Herbicidal ratio of 40% or more and less than 70%) | 3 (Herbicidal ratio of 40% or more and less than 70%) | 0 (Herbicidal ratio of 5% or less (almost no effect)) | 2 (Herbicidal ratio of 20% or more and less than 40%) | 2 (Herbicidal ratio of 20% or more and less than 40%) | 2 (Herbicidal ratio of 20% or more and less than 40%) |
| CCN(C)c1nnc2c(C(=O)Nc3nnco3)ccc(C(F)(F)F)n12 [1-137] | 5 (Herbicidal ratio of 90% or more (almost completely withered)) | 5 (Herbicidal ratio of 90% or more (almost completely withered)) | 5 (Herbicidal ratio of 90% or more (almost completely withered)) | 3 (Herbicidal ratio of 40% or more and less than 70%) | 3 (Herbicidal ratio of 40% or more and less than 70%) | 3 (Herbicidal ratio of 40% or more and less than 70%) | 3 (Herbicidal ratio of 40% or more and less than 70%) |
| CCN(CC)c1nnc2c(C(=O)Nc3nnco3)ccc(C(F)(F)F)n12 [1-138] | 5 (Herbicidal ratio of 90% or more (almost completely withered)) | 4 (Herbicidal ratio of 70% or more and less than 90%) | 5 (Herbicidal ratio of 90% or more (almost completely withered)) | 3 (Herbicidal ratio of 40% or more and less than 70%) | 3 (Herbicidal ratio of 40% or more and less than 70%) | 3 (Herbicidal ratio of 40% or more and less than 70%) | 3 (Herbicidal ratio of 40% or more and less than 70%) |
| O=C(Nc1nnco1)c1ccc(C(F)(F)F)n2c(N3CCCC3)nnc12 [1-139] | 5 (Herbicidal ratio of 90% or more (almost completely withered)) | 3 (Herbicidal ratio of 40% or more and less than 70%) | 4 (Herbicidal ratio of 70% or more and less than 90%) | 4 (Herbicidal ratio of 70% or more and less than 90%) | 3 (Herbicidal ratio of 40% or more and less than 70%) | 3 (Herbicidal ratio of 40% or more and less than 70%) | 1 (Herbicidal ratio of 5% or more and less than 20%) |
